Source: patent US20030022932A1, “Methods for regulating bacteria” (priority 2001, published 2003)

Test system: Pseudomonas aeruginosa
Assay: agar bead model of rat chronic respiratory infection (quantitative lung pathology, histopathology)
Assay type: in vivo
Settings: 7 days post-infection
Experimental: The following Examples illustrate the effect of normal flora and the presence of autoinducer-2 (AI-2) on Pseudomonas aeruginosa infection in the agar bead model of rat chronic respiratory infection. Groups of 15 rats (male Sprague-Dawley 180-200 grams) were inoculated intratracheally with 0.05 mL suspensions of bacteria embedded in agar beads. Seven days post-infection each group was treated as follows: (1) five rats—lungs removed for quantitative microbiology; (2) five rats—bronchoaveolar lavage (BAL) were obtained and analyzed for total cell counts, neutrophils, neutrophil elastase and AI-2 activity; and (3) five rats—lungs removed for histology (quantitative pathology). In the microphotographs shown in FIGS. 4-7, the dark areas indicate regions of consolidation, an indication of tissue damage. An α-hemolytic Streptococcus isolate (designated CFX5) from a cystic fibrosis patient was used to supply naturally synthesized AI-2 in vivo.
Rats inoculated with agar beads containing Pseudomonas aeruginosa alone yielded the quantitative pathology shown in FIG. 3 (PAO), and the histopathology shown in the microphotograph of FIG. 4
Rats inoculated with agar beads containing Pseudomonas aeruginosa alone and exposed to synthetic AI-2 yielded the quantitative pathology shown in FIG. 3 (PAO/AI-2), and the histopathology shown in FIG. 5.
Rats inoculated with agar beads containing Pseudomonas aeruginosa +α-hemolytic Streptococcus (CFX5) yielded the quantitative pathology shown in FIG. 3 (PAO/NF), and the histopathology shown in FIG. 6.
Rats inoculated with agar beads containing Pseudomonas aeruginosa +α-hemolytic Streptococcus (CFX5), treated daily for six days with aerosolized QXO18 (2-pentyl-2-cyclopenten-1-one), an AI-2 antagonist, yielded the quantitative pathology shown in FIG. 3 (PAO/NF/QXO18), and the histopathology shown in FIG. 7.

Compound	lung pathology caused by Pseudomonas aeruginosa (percent of lung tissue showing consolidation) (Pseudomonas aeruginosa + α-hemolytic Streptococcus (CFX5), treated daily for six days with aerosolized compound, PAO/NF/QXO18 vs PAO/NF)	lung pathology caused by Pseudomonas aeruginosa (percent of lung tissue showing consolidation) (AI-2 supplied endogenously by co-infecting α-hemolytic Streptococcus isolate CFX5, PAO/NF)	lung pathology caused by Pseudomonas aeruginosa (percent of lung tissue showing consolidation) (rats inoculated with Pseudomonas aeruginosa alone, exposed to synthetic (exogenously supplied) AI-2, PAO/AI-2 vs PAO)
CCCCCC1=CCCC1=O [2-pentyl-2-cyclopenten-1-one]	greatly diminishes the increased lung pathology	–	–
autoinducer-2 [AI-2]	–	increases the lung pathology even more	increases the lung pathology
